Reference: patent US6454951B1, “Photosensitive composition” (priority 1996, dated 2002)

Key:
[1] = test system: Escherichia coli; test: Photo-inactivation of bacteria by visible light irradiation (cell survival); details: in words
[2] = test system: Vibrio anguillarum; test: as above; format: cell-based; details: in words

## Meso-di(N-methyl-4-pyridyl)diphenylporphine [Di(4-N-MPy)Ph2P]
[1]
  Photo-inactivation compared with T4MPyP: more rapid and more intense photo-inactivation
[2]; Gram-negative bacteria, FIG. 1, visible light
  Effect of washing operations on photosensitizing efficiency: less sensitive to washing and retains a high photoactivity
[2]; Vibrio anguillarum, visible light
  Photo-inactivation compared with T4MPyP: more rapid and more intense photo-inactivation
